Source: PMC5218480 (PLoS ONE, 2017)

System: MV-4-11 cells
Assay: Gene expression microarray analysis (Affymetrix PrimeView) and GSEA
Type: cell-based, human
Set-up: RFU PODN (11730768_x_at) / Fold change /veh PODN (11730768_x_at) / RFU LINC00158 (11744669_a_at) / Fold change /veh LINC00158 (11744669_a_at) / RFU DUSP10 (11751237_a_at) / Fold change /veh DUSP10 (11751237_a_at) / RFU ID3 (11757404_x_at) / Fold change /veh ID3 (11757404_x_at) / RFU PLEKHG5 (11737974_s_at) / Fold change /veh PLEKHG5 (11737974_s_at) / RFU LRRC4B (11730491_at) / Fold change /veh LRRC4B (11730491_at) / RFU GIMAP4 (11747438_a_at) / Fold change /veh GIMAP4 (11747438_a_at) / RFU KRT8 (11758183_x_at) / Fold change /veh KRT8 (11758183_x_at) / RFU CNN1 (11734310_a_at) / Fold change /veh CNN1 (11734310_a_at) / RFU VPS37D (11726825_at) / Fold change /veh VPS37D (11726825_at) / RFU C10orf10 (11716522_x_at) / Fold change /veh C10orf10 (11716522_x_at) / RFU KIR2DL2 /// KIR2DL4 /// KIR2DL5A /// KIR2DL5B /// KIR2DS1 /// KIR2DS2 /// KIR2DS3 /// KIR2DS4 /// KIR3DL3 /// KIR3DL3 /// KIR3DS1 (11738374_at) / Fold change /veh KIR2DL2 /// KIR2DL4 /// KIR2DL5A /// KIR2DL5B /// KIR2DS1 /// KIR2DS2 /// KIR2DS3 /// KIR2DS4 /// KIR3DL3 /// KIR3DL3 /// KIR3DS1 (11738374_at) / RFU C1QL1 (11718748_at) / Fold change /veh C1QL1 (11718748_at) / RFU TMPRSS4 (11747572_a_at) / Fold change /veh TMPRSS4 (11747572_a_at) / RFU HAMP (11756126_x_at) / Fold change /veh HAMP (11756126_x_at) / RFU RNFT2 (11725882_a_at) / Fold change /veh RNFT2 (11725882_a_at) / RFU NR4A2 (11747474_a_at) / Fold change /veh NR4A2 (11747474_a_at) / RFU ABCC12 (11746883_a_at) / Fold change /veh ABCC12 (11746883_a_at) / RFU TMEM136 (11760407_x_at) / Fold change /veh TMEM136 (11760407_x_at) / RFU CLDN22 /// WWC2 (11732394_at) / Fold change /veh CLDN22 /// WWC2 (11732394_at) / RFU HLA-DPB1 (11760878_x_at) / Fold change /veh HLA-DPB1 (11760878_x_at) / RFU SPINT1 (11716480_a_at) / Fold change /veh SPINT1 (11716480_a_at) / RFU GAP43 (11754022_s_at) / Fold change /veh GAP43 (11754022_s_at) / RFU A4GNT (11735810_at) / Fold change /veh A4GNT (11735810_at) / RFU PRB3 (11715151_x_at) / Fold change /veh PRB3 (11715151_x_at) / RFU TUBB4B (11761932_at) / Fold change /veh TUBB4B (11761932_at) / RFU CAPN14 (11732068_a_at) / Fold change /veh CAPN14 (11732068_a_at) / RFU TMCC2 (11721928_a_at) / Fold change /veh TMCC2 (11721928_a_at) / RFU IRGQ (11745062_a_at) / Fold change /veh IRGQ (11745062_a_at) / RFU FAM174B (11720279_a_at) / Fold change /veh FAM174B (11720279_a_at) / RFU TMPRSS4 (11748680_a_at) / Fold change /veh TMPRSS4 (11748680_a_at) / RFU FAM212B (11763350_a_at) / Fold change /veh FAM212B (11763350_a_at) / RFU PLEKHG5 (11743358_a_at) / Fold change /veh PLEKHG5 (11743358_a_at) / RFU ZSCAN30 (11745921_a_at) / Fold change /veh ZSCAN30 (11745921_a_at) / RFU CMKLR1 (11741424_a_at) / Fold change /veh CMKLR1 (11741424_a_at) / RFU LOC101060620 /// MAPK8IP1 (11723275_at) / Fold change /veh LOC101060620 /// MAPK8IP1 (11723275_at) / RFU SPTSSB (11747773_x_at) / Fold change /veh SPTSSB (11747773_x_at) / RFU PRSS12 (11739890_at) / Fold change /veh PRSS12 (11739890_at) / RFU BIN1 (11741810_x_at) / Fold change /veh BIN1 (11741810_x_at) / RFU WNT11 (11732464_a_at) / Fold change /veh WNT11 (11732464_a_at) / RFU C10orf10 (11716521_a_at) / Fold change /veh C10orf10 (11716521_a_at) / RFU C5orf56 (11738089_at) / Fold change /veh C5orf56 (11738089_at) / RFU CYB561 (11721691_x_at) / Fold change /veh CYB561 (11721691_x_at) / RFU ANKRD19P (11752326_a_at) / Fold change /veh ANKRD19P (11752326_a_at) / RFU OR2T12 /// OR2T33 /// OR2T8 (11738714_s_at) / Fold change /veh OR2T12 /// OR2T33 /// OR2T8 (11738714_s_at) / RFU VCAN (11748164_a_at) / Fold change /veh VCAN (11748164_a_at) / RFU JSRP1 (11732532_at) / Fold change /veh JSRP1 (11732532_at) / RFU KRTAP10-11 (11738290_x_at) / Fold change /veh KRTAP10-11 (11738290_x_at) / RFU MYO3A (11730013_a_at) / Fold change /veh MYO3A (11730013_a_at) / RFU EBF3 (11725865_a_at) / Fold change /veh EBF3 (11725865_a_at) / RFU CAMK2N1 (11719241_x_at) / Fold change /veh CAMK2N1 (11719241_x_at) / RFU C5orf56 (11738088_a_at) / Fold change /veh C5orf56 (11738088_a_at) / RFU OLFML3 (11715873_a_at) / Fold change /veh OLFML3 (11715873_a_at) / RFU LOC100653217 /// NTM (11731650_a_at) / Fold change /veh LOC100653217 /// NTM (11731650_a_at) / RFU MAPK11 (11762145_a_at) / Fold change /veh MAPK11 (11762145_a_at) / RFU FIZ1 (11724087_x_at) / Fold change /veh FIZ1 (11724087_x_at) / RFU OASL (11726364_x_at) / Fold change /veh OASL (11726364_x_at) / RFU SOX15 (11748057_x_at) / Fold change /veh SOX15 (11748057_x_at) / RFU CD79A (11719716_a_at) / Fold change /veh CD79A (11719716_a_at) / RFU HIST1H1D (11736915_at) / Fold change /veh HIST1H1D (11736915_at) / RFU CASKIN2 (11723855_a_at) / Fold change /veh CASKIN2 (11723855_a_at) / RFU LOC730098 (11760151_x_at) / Fold change /veh LOC730098 (11760151_x_at) / RFU OR4N2 (11742367_at) / Fold change /veh OR4N2 (11742367_at) / RFU PRRT2 (11749266_a_at) / Fold change /veh PRRT2 (11749266_a_at) / RFU SNX32 (11753110_a_at) / Fold change /veh SNX32 (11753110_a_at) / RFU CDHR5 (11726645_a_at) / Fold change /veh CDHR5 (11726645_a_at) / RFU RCAN1 (11760418_a_at) / Fold change /veh RCAN1 (11760418_a_at) / RFU FAM167A (11723789_a_at) / Fold change /veh FAM167A (11723789_a_at) / RFU FAM26E (11764081_at) / Fold change /veh FAM26E (11764081_at) / RFU ISYNA1 (11749810_s_at) / Fold change /veh ISYNA1 (11749810_s_at) / RFU ACY1 (11761880_at) / Fold change /veh ACY1 (11761880_at) / RFU 11764098_at / Fold change /veh 11764098_at / RFU SAMD14 (11745864_x_at) / Fold change /veh SAMD14 (11745864_x_at) / RFU NPB (11741838_a_at) / Fold change /veh NPB (11741838_a_at) / RFU TMPRSS6 (11731388_a_at) / Fold change /veh TMPRSS6 (11731388_a_at) / RFU KRTAP10-2 (11738614_at) / Fold change /veh KRTAP10-2 (11738614_at) / RFU ARHGAP8 /// PRR5-ARHGAP8 (11727945_x_at) / Fold change /veh ARHGAP8 /// PRR5-ARHGAP8 (11727945_x_at) / RFU KRTAP5-7 /// NADSYN1 (11734609_at) / Fold change /veh KRTAP5-7 /// NADSYN1 (11734609_at) / RFU RASL12 (11751679_a_at) / Fold change /veh RASL12 (11751679_a_at) / RFU CDKN2B (11736163_a_at) / Fold change /veh CDKN2B (11736163_a_at) / RFU PRF1 (11729649_at) / Fold change /veh PRF1 (11729649_at) / RFU, ZNF638 /// ZNF638-IT1 / Fold change vs veh, ZNF638 /// ZNF638-IT1 / RFU, PANK3 / Fold change vs veh, PANK3 / RFU, SH3YL1 / Fold change vs veh, SH3YL1 / RFU, ZEB2 / Fold change vs veh, ZEB2 / RFU, NRIP1 / Fold change vs veh, NRIP1 / RFU, PTTG1IP / Fold change vs veh, PTTG1IP / RFU, CAPN2 / Fold change vs veh, CAPN2 / RFU, MED14 / Fold change vs veh, MED14 / RFU, SNORA58 / Fold change vs veh, SNORA58 / RFU, C1orf63 / Fold change vs veh, C1orf63 / RFU, LRRFIP1 / Fold change vs veh, LRRFIP1 / RFU, NDUFAF7 / Fold change vs veh, NDUFAF7 / RFU, SLC12A2 / Fold change vs veh, SLC12A2 / RFU, IBTK / Fold change vs veh, IBTK / RFU, ESF1 / Fold change vs veh, ESF1 / Fold change vs veh, TMEM50B / RFU, TAOK1 / Fold change vs veh, TAOK1 / RFU, ACBD3 / Fold change vs veh, ACBD3 / RFU, TMA16 / Fold change vs veh, TMA16 / RFU, RWDD3 / Fold change vs veh, RWDD3 / RFU, BCAT1 / Fold change vs veh, BCAT1 / RFU, EDEM3 / Fold change vs veh, EDEM3 / RFU, TMEM33 / Fold change vs veh, TMEM33 / RFU, WDR75 / Fold change vs veh, WDR75 / RFU, AHCTF1 / Fold change vs veh, AHCTF1 / RFU, TFRC / Fold change vs veh, TFRC / RFU, ZDHHC17 / Fold change vs veh, ZDHHC17 / RFU, NOM1 / Fold change vs veh, NOM1 / RFU, ARL8B / Fold change vs veh, ARL8B / RFU, ZBTB11 / Fold change vs veh, ZBTB11 / RFU, TAMM41 / Fold change vs veh, TAMM41 / RFU, KIAA1704 /// LOC100996395 / Fold change vs veh, KIAA1704 /// LOC100996395 / RFU, ING1 / Fold change vs veh, ING1 / RFU, TRMT61B / Fold change vs veh, TRMT61B / RFU, FUBP3 / Fold change vs veh, FUBP3 / RFU, TP53 / Fold change vs veh, TP53 / RFU, TNKS2 / Fold change vs veh, TNKS2 / RFU, ZFP14 / Fold change vs veh, ZFP14 / RFU, ACTR2 / Fold change vs veh, ACTR2 / RFU, PPP3R1 / Fold change vs veh, PPP3R1 / RFU, PIK3R1 / Fold change vs veh, PIK3R1 / RFU, HNRNPA1 / Fold change vs veh, HNRNPA1 / RFU, RNF170 / Fold change vs veh, RNF170 / RFU, ZNF28 / Fold change vs veh, ZNF28 / RFU, RNGTT / Fold change vs veh, RNGTT / RFU, OGT / Fold change vs veh, OGT / RFU, BRD1 / Fold change vs veh, BRD1 / RFU, MARS / Fold change vs veh, MARS / RFU, ZNF655 / Fold change vs veh, ZNF655 / RFU, FAHD1 / Fold change vs veh, FAHD1 / RFU, BDP1 / Fold change vs veh, BDP1 / RFU, LRRCC1 / Fold change vs veh, LRRCC1 / RFU, ARID1A / Fold change vs veh, ARID1A / RFU, ZNF146 / Fold change vs veh, ZNF146 / RFU, ZNF330 / Fold change vs veh, ZNF330 / RFU, GPN3 / Fold change vs veh, GPN3 / RFU, C9orf123 / Fold change vs veh, C9orf123 / RFU, N4BP2L2 / Fold change vs veh, N4BP2L2 / RFU, ARFIP1 / Fold change vs veh, ARFIP1 / RFU, FAM179B / Fold change vs veh, FAM179B / RFU, BCL10 / Fold change vs veh, BCL10 / RFU, UHRF1BP1L / Fold change vs veh, UHRF1BP1L / RFU, BET1 / Fold change vs veh, BET1 / RFU, CNOT2 / Fold change vs veh, CNOT2 / RFU, ZNF268 / Fold change vs veh, ZNF268 / Fold change vs veh, ZNF507 / RFU, DGCR2 / Fold change vs veh, DGCR2 / RFU, WDSUB1 / Fold change vs veh, WDSUB1 / Fold change vs veh, HSP90B1 /// MIR3652 / RFU, ADSS / Fold change vs veh, ADSS / RFU, GK / Fold change vs veh, GK / RFU, ZNF148 / Fold change vs veh, ZNF148 / RFU, TAF9 / Fold change vs veh, TAF9 / RFU, SLC1A5 / Fold change vs veh, SLC1A5 / RFU, SLMO2 / Fold change vs veh, SLMO2 / RFU, ABCC4 / Fold change vs veh, ABCC4 / RFU, LOC101060439 /// RAP1B / Fold change vs veh, LOC101060439 /// RAP1B / RFU, RFX7 / Fold change vs veh, RFX7 / RFU, GTPBP10 / Fold change vs veh, GTPBP10 / RFU, CNEP1R1 / Fold change vs veh, CNEP1R1 / RFU, BIVM-ERCC5 /// ERCC5 / Fold change vs veh, BIVM-ERCC5 /// ERCC5 / RFU, ILF3 / Fold change vs veh, ILF3 / RFU 11762660_at / Fold change /veh 11762660_at / RFU VCAN (11757783_s_at) / Fold change /veh VCAN (11757783_s_at) / RFU DDX43 (11728927_at) / Fold change /veh DDX43 (11728927_at) / RFU KRT8 (11758188_x_at) / Fold change /veh KRT8 (11758188_x_at) / RFU NKD1 (11759106_at) / Fold change /veh NKD1 (11759106_at) / RFU SRD5A1 (11742802_a_at) / Fold change /veh SRD5A1 (11742802_a_at) / RFU TPSAB1 /// TPSB2 (11721975_s_at) / Fold change /veh TPSAB1 /// TPSB2 (11721975_s_at) / RFU GSTM3 (11746129_a_at) / Fold change /veh GSTM3 (11746129_a_at) / RFU IL23R (11737362_x_at) / Fold change /veh IL23R (11737362_x_at) / RFU TMEM51 (11727254_a_at) / Fold change /veh TMEM51 (11727254_a_at) / RFU PIWIL2 (11732686_x_at) / Fold change /veh PIWIL2 (11732686_x_at) / RFU ORM1 (11744905_x_at) / Fold change /veh ORM1 (11744905_x_at) / RFU CCDC152 (11743942_at) / Fold change /veh CCDC152 (11743942_at) / RFU ECM1 (11717891_a_at) / Fold change /veh ECM1 (11717891_a_at) / RFU IL23R (11748794_a_at) / Fold change /veh IL23R (11748794_a_at) / RFU TNFAIP8L3 (11732012_x_at) / Fold change /veh TNFAIP8L3 (11732012_x_at) / RFU MBOAT4 (11741988_at) / Fold change /veh MBOAT4 (11741988_at) / RFU 11764193_at / Fold change /veh 11764193_at / RFU TMEM53 (11763286_at) / Fold change /veh TMEM53 (11763286_at) / RFU MAGEB2 (11727129_at) / Fold change /veh MAGEB2 (11727129_at) / RFU TMEM200A (11744735_a_at) / Fold change /veh TMEM200A (11744735_a_at) / RFU CCDC152 (11751479_a_at) / Fold change /veh CCDC152 (11751479_a_at) / RFU FAM211A (11726209_a_at) / Fold change /veh FAM211A (11726209_a_at) / RFU RGS16 (11746705_a_at) / Fold change /veh RGS16 (11746705_a_at) / RFU VCAN (11755009_s_at) / Fold change /veh VCAN (11755009_s_at) / RFU RHOB (11743442_s_at) / Fold change /veh RHOB (11743442_s_at) / RFU RGS16 (11720943_a_at) / Fold change /veh RGS16 (11720943_a_at) / RFU RGS16 (11720944_at) / Fold change /veh RGS16 (11720944_at) / RFU, VPS4B / Fold change vs veh, VPS4B / RFU, CREB1 / Fold change vs veh, CREB1 / RFU, DNAJC13 / Fold change vs veh, DNAJC13 / RFU, GNAQ / Fold change vs veh, GNAQ / RFU, CDK5R1 / Fold change vs veh, CDK5R1 / RFU, ZRANB3 / Fold change vs veh, ZRANB3 / RFU, CUL4A / Fold change vs veh, CUL4A / RFU, CCNY / Fold change vs veh, CCNY / RFU, UFL1 / Fold change vs veh, UFL1 / RFU, COG3 / Fold change vs veh, COG3 / RFU, DIAPH2 / Fold change vs veh, DIAPH2 / RFU, SKA2 / Fold change vs veh, SKA2 / RFU, AFF3 / Fold change vs veh, AFF3 / RFU, LMF1 / Fold change vs veh, LMF1 / RFU, IPO11 / Fold change vs veh, IPO11 / RFU, DFFB / Fold change vs veh, DFFB / RFU, FOXP1 / Fold change vs veh, FOXP1 / RFU, CARD8 / Fold change vs veh, CARD8 / RFU, STRN3 / Fold change vs veh, STRN3 / RFU, ADK / Fold change vs veh, ADK / RFU, RASSF2 / Fold change vs veh, RASSF2 / RFU, WIPF1 / Fold change vs veh, WIPF1 / RFU, LARP1B / Fold change vs veh, LARP1B / RFU, RASA1 / Fold change vs veh, RASA1 / RFU, RB1 / Fold change vs veh, RB1 / RFU, PPFIA1 / Fold change vs veh, PPFIA1 / RFU, MAT2A / Fold change vs veh, MAT2A / RFU, CCT5 / Fold change vs veh, CCT5 / RFU, WDR92 / Fold change vs veh, WDR92 / RFU, CUX1 / Fold change vs veh, CUX1 / RFU, TTC7A / Fold change vs veh, TTC7A / RFU, TMEM135 / Fold change vs veh, TMEM135 / RFU, DEPTOR / Fold change vs veh, DEPTOR / RFU, CPM / Fold change vs veh, CPM / RFU, DNAJB6 / Fold change vs veh, DNAJB6 / RFU, CACNA2D3 / Fold change vs veh, CACNA2D3 / RFU, DTX4 / Fold change vs veh, DTX4 / RFU, TFCP2 / Fold change vs veh, TFCP2 / RFU, GMCL1 /// GMCL1P1 / Fold change vs veh, GMCL1 /// GMCL1P1 / RFU, AEBP2 / Fold change vs veh, AEBP2 / RFU, SNHG1 /// SNORD22 /// SNORD25 /// SNORD26 /// SNORD27 /// SNORD28 /// SNORD29 /// SNORD31 / Fold change vs veh, SNHG1 /// SNORD22 /// SNORD25 /// SNORD26 /// SNORD27 /// SNORD28 /// SNORD29 /// SNORD31 / Fold change (Aza/veh), C12orf56 (ProbeSet 11735607_a_at) / Fold change (ACY-1035/veh), C12orf56 (ProbeSet 11735607_a_at) / Fold change (Aza/veh), FGFR1OP (ProbeSet 11751329_s_at) / Fold change (ACY-1035/veh), FGFR1OP (ProbeSet 11751329_s_at) / Fold change (Aza/veh), VPS36 (ProbeSet 11739960_a_at) / Fold change (ACY-1035/veh), VPS36 (ProbeSet 11739960_a_at) / RFU SYPL1 (11715823_x_at) / Fold change /veh SYPL1 (11715823_x_at) / RFU IGFBP7 (11715501_s_at) / Fold change /veh IGFBP7 (11715501_s_at) / RFU REEP3 (11722064_at) / Fold change /veh REEP3 (11722064_at) / RFU IGLL1 (11728026_x_at) / Fold change /veh IGLL1 (11728026_x_at): dose or concentration left out as unconfirmed
Conditions: ProbeSet 11721611_a_at; LIST D

In the case of `Nc1ccc(-c2cccs2)cc1NC(=O)c1ccc2c(c1)cc(C1CC1)n2CCN1CCOCC1` [ACY-1035], the “Fold change vs veh, IPO11” value is reported as 0.84.
